Experimental data: patent US7868185B2, “Shp-2 inhibitors and pharmaceutical compositions comprising them” (Max-Delbruck-Centrum fur Molekulare Medizin, priority 2005, dated 2011)

How the values were obtained:
[1] = tested on: HGF induced scattering; conditions: in vitro; cited from earlier work
[2] = molecular target: Met (Homo sapiens, UniProt P08581); conditions: in vitro; cited from earlier work
[3] = earlier experiments; cited from earlier work
[4] = tested on: phosphorylation of MAP kinases Erk1 and Erk2; experiment: HGF/SF phosphorylation assay (NCI-H661); format: cell-based, human; conditions: NCI-H661 cells (N58S in SHP2/PTPN11), HGF/SF stimulation, dose dependant
Experimental: Typically, human tumor cells (e.g. NCI-H661) were seeded at 0.25×10E6 cells/ml (1 ml/well) in a 6 well microtiter plate in RPMI/10% FBS and incubated over night at 37° C./5% CO2. Medium is exchanged against RPMI/1% FBS plus 5, 10 or 20 μM (final concentration) compound, and the cells were incubated for 20 h at 37° C./5% CO2. Medium was exchanged against RPMI (without serum) plus 5, 10 or 20 μM compound (final DMSO concentration less than 1%), and the cells were incubated for 4 h at 37° C./5% CO2. Medium was exchanged against DMEM (without serum) plus 5, 10 or 20 μM compound (final DMSO concentration less than 1%) plus 10 ng/ml HGF/SF, and the cells were incubated for 4 h at 37° C./5% CO2. […] Proteins on the blot were analyzed by antibodies against p42/p44 MAP kinase (Erk1/Erk2) (Cell Signaling Technology, Inc., Beverly, USA) and phospho-Erk1/Erk2 (Cell Signaling, Technology, Inc., Beverly, USA). The binding of the antibodies to the MAP kinases on the nitrocellulose was detected by incubation with secondary goat-anti-rabbit-antibodies coupled to horse radish peroxidase (Jackson ImmunoResearch Laboratories, Soham, UK) and subsequent reaction with ECL reagents (Western Lightning™, PerkinElmer Life Sciences, Inc. Boston, USA) and X-ray film exposure (X-OMAT™, Kodak GmbH, Stuttgart, Germany).

[5] = tested on: phosphorylation of MAP kinases Erk1 and Erk2; experiment: HGF/SF phosphorylation assay (MDCK); format: cell-based, canine; conditions: MDCK cells, HGF/SF stimulation, 5, 10, 20 μM, dose dependant
Experimental: MDCK cells are seeded at 0.15×10E6 cells/ml (1 ml/well) in a 12 well microtiter plate in DMEM/10% FBS and incubated over night at 37° C./5% CO2. Medium is exchanged against DMEM/1% FBS plus 5, 10 or 20 μM (final concentration) compound, and the cells are incubated for 16 h at 37° C./5% CO2. Medium is exchanged against DMEM (without serum) plus 5, 10 or 20 μM compound (final DMSO concentration less than 1%), and the cells are incubated for 2 h at 37° C./5% CO2. Medium is exchanged against DMEM (without serum) plus 5, 10 or 20 μM compound (final DMSO concentration less than 1%) plus 10 ng/ml HGF/SF, and the cells are incubated for 6 h at 37° C./5% CO2. […] Proteins on the blot are analyzed by antibodies against p42/p44 MAP kinase (Erk1/Erk2) (Cell Signaling Technology, Inc., Beverly, USA) and phospho-Erk1/Erk2 (Cell Signaling Technology, Inc., Beverly, USA).
The binding of the antibodies to the MAP kinases on the nitrocellulose was detected by incubation with secondary goat-anti-rabbit-antibodies coupled to horse radish peroxidase (Jackson ImmunoResearch Laboratories, Soham, UK) and subsequent reaction with ECL reagents (Western Lightning™, PerkinElmer Life Sciences, Inc. Boston, USA) and X-ray film exposure (X-OMAT™, Kodak GmbH, Stuttgart, Germany). […]

Met, sequence (P08581 25-1390): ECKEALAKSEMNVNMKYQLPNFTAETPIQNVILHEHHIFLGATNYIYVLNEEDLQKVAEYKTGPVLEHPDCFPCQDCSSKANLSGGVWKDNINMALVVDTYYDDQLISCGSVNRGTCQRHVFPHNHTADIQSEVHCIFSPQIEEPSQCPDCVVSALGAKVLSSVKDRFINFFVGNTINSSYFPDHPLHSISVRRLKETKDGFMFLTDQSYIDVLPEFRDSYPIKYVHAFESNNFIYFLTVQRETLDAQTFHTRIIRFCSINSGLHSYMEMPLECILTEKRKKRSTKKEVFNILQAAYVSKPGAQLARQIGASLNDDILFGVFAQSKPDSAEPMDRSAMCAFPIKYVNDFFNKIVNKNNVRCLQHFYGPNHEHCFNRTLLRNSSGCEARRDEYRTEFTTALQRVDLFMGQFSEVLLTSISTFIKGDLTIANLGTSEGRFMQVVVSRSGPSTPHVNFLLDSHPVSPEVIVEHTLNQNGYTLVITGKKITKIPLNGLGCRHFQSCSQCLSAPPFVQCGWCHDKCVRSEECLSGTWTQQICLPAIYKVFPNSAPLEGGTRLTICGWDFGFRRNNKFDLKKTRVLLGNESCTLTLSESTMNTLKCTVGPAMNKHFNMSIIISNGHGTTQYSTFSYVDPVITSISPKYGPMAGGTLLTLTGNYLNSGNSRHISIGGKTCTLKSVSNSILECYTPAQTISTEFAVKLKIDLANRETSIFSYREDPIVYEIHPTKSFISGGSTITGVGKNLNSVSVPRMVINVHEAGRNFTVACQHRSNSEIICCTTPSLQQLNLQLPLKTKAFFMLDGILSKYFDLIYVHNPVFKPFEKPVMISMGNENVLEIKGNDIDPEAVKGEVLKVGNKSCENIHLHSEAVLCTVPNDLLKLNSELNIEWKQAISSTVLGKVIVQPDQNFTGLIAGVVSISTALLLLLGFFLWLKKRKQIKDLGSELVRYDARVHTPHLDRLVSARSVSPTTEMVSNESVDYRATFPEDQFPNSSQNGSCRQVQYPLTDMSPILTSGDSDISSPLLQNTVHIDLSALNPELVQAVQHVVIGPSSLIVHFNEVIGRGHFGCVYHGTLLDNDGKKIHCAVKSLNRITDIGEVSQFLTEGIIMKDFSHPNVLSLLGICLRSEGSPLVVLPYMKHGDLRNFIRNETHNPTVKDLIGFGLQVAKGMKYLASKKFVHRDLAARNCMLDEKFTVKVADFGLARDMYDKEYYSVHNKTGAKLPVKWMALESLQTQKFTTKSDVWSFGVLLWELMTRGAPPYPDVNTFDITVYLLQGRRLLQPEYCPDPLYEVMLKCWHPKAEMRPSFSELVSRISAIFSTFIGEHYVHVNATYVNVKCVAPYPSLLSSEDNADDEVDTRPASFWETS

| SMILES | HGF induced scattering [1] | Met autophosphorylation [2] | antitumor activity in vivo [3] | sustained MAP kinase phosphorylation [4] | sustained MAP kinase phosphorylation (P-Erk1/Erk1) [5] |
| --- | --- | --- | --- | --- | --- |
| COC(=O)[C@@]1(O)C[C@H]2O[C@]1(C)n1c3ccccc3c3c4c(c5c6ccccc6n2c5c31)C(=O)NC4 [Compound K252a] | inhibits | inhibits | no antitumor activity | – | – |
| O=C1/C(=N\Nc2ccc(S(=O)(=O)O)cc2)C(c2ccc([N+](=O)[O-])cc2)=NN1c1ccccc1 [II-1, 4-(2-(3-(4-nitrophenyl)-5-oxo-1-phenyl-1,5-dihydro-4H-pyrazol-4-ylidene)hydrazino)-benzenesulfonic acid] | – | – | – | inhibited | inhibited |
